In patent publication US20250000822A1, “USE OF 2-HYDROXYBENZYLAMINE FOR THE TREATMENT OF SYSTEMIC LUPUS” (Vanderbilt University, priority 2019, published 2025):
Entries after “also recorded” stand apart in the source; their conditions may differ.

Tests used:
B6.SLE123 mice [1] = assay: isoLG adduct accumulation in monocytes and dendritic cells of SLE-prone mice (flow cytometry); assay type: in vivo; conditions: B6.SLE123 mice treated from 7 weeks of age, analysed at 32 weeks
Experimental: Quantitation of isoLG-adduct containing cells in (C) splenic DCs (D) circulating monocytes. (n=5-9, *P<0.05, **P<0.01, ***P<0.001, ****P<0.0001).
The present inventors have also shown that 2-HOBA reduces isoLG accumulation in monocytes and dendritic cells (DCs) of SLE-prone mice. B6.SLE123 mice were treated with 2-HOBA starting at 7 weeks of age (prior to disease presentation). At 32 weeks of age, peripheral blood, spleen, and bone marrow cells were harvested from B6.SLE123 and control (C57BL/6) mice. Flow cytometry was used to detect the surface markers CD11c, IAb, CD11b, F4/80, and Ly6c and isoLG adducts.

B6.SLE123 mice [2] = assay: SLE-associated renal injury and dysfunction, B6.SLE123 mice; assay type: in vivo
Experimental: Kidneys were sectioned and stained with […] silver stain; (A) representative glomeruli are presented. (B) Mice received IP injection of 4% normal saline at 10% of body weight and urine output was measured over 4 hours. (C) Urine albumin/creatine ratio. (D) Urinary NGAL. (n=6-8, *P<0.05, **P<0.01, ****P<0.0001).
The present inventors have also shown that 2-HOBA protects against SLE-associated renal injury and dysfunction. […] To assess renal function, 2-HOBA treated and untreated B6.SLE123 animals were injected with 4% normal saline at a volume equal to 10% of their body weight, and urine volume was measured over 4 hours.

HepG2 cells = assay: protection of HepG2 cells against H2O2-induced cytotoxicity; assay type: cell-based
From the text: (§1) 2-HOBA, for example, is naturally found in buckwheat seeds. 2-HOBA is highly reactive and found to react with isoLGs at a rate more than 3 orders of magnitude faster than the e-amine of lysine (see FIG. 3). By selectively reacting with isoLGs, 2-HOBA inhibits isoLG:protein adduct formation and subsequent isoLG-induced cell dysfunction.

B6.SLE123 mice [3] = assay: SLE-associated renal inflammation, B6.SLE123 mice; assay type: in vivo
Experimental: Single cell suspensions were prepared from freshly isolated mouse kidney via enzymatic digestion and mechanical dissociation. Live cell singlets were analyzed. Representative FACS plots are presented for (A) CD3^+ T-cells. Quantitation of (B) CD45^+ leukocytes and (C) CD3^+ T-cells are represented. (n=6-8, *P<0.05, **P<0.01).
The present inventors have also shown that 2-HOBA reduces SLE-associated inflammation.

[4] = in vitro, in animals, or in humans, to date; cited from earlier work
healthy human volunteers [5] = conditions: 500 and 750 mg TID for 2 weeks; cited from earlier work
[6] = reaction of 2-HOBA with isoLGs (isoLG scavenging)
From the text: as §1

B6.SLE123 mice [7] = assay: plasma cell expansion and antibody titers, B6.SLE123 mice; assay type: in vivo
Experimental: (A) Representative FACS plots displaying CD138^+ and intracellular Igκ-light-chain^+ plasma cells from bone marrow. Quantitation of plasma cells as a percentage of CD45 cells are represented for (B) bone marrow. (C) Anti-dsDNA IgG antibody and (D) total plasma IgG at 1:100K dilution were analyzed by ELISA. (n=5-7, *P<0.05, **P<0.01, ***P<0.001, ****P<0.0001).
The present inventors have also shown that 2-HOBA reduces bone marrow plasma cell expansion and anti-dsDNA antibody titers. SLE is associated with an expansion of plasma cells and an amplification of auto-antibodies. Autoreactive plasma cells are believed to play an important role in SLE by generating antibodies that lead to the creation of immune complexes which deposit in peripheral tissues. Flow cytometry was performed to identify CD138^+/Igκ-light-chain^+ plasma cells in spleen and bone marrow cell preparations from B6.SLE123 animals treated with vehicle or 2-HOBA. B6.SLE123 animals had significant accumulation of spleen and bone marrow plasma cells which were attenuated by 2-HOBA (FIG. 7A-C).

healthy human volunteers [8] = conditions: single doses up to 825 mg (highest dose tested); cited from earlier work
[9] = SLE-prone mice, kidney sections
[10] = B6.SLE123, CD138+/Igκ-light-chain+ cells, flow cytometry

Q: With NCc1ccccc1O [2-HOBA, 2-hydroxybenzylamine] as the molecule, how does the “isoLG accumulation in monocytes” value (B6.SLE123 mice [1]; peripheral blood monocytes) read?
A: efficient scavenging; also recorded: significantly attenuated

Q: What about the “isoLG accumulation in DCs” value (B6.SLE123 mice [1]; splenic dendritic cells) of the same molecule?
A: efficient scavenging; also recorded: significantly attenuated

Q: And the “albumin to creatinine ratio” value (B6.SLE123 mice [2]; B6.SLE123 mice, urine)?
A: improved

Q: And the NGAL excretion (B6.SLE123 mice [2]; B6.SLE123 mice, urine, marker of tubular injury)?
A: improved

Q: And the urine volume (B6.SLE123 mice [2]; B6.SLE123 mice, over 4 hours after injection of 4% normal saline at 10% of body weight)?
A: improved

Q: And the glomerular hypercellularity (B6.SLE123 mice [2]; [9])?
A: markedly improved

Q: What about the immune complex deposition (B6.SLE123 mice [2]; [9]) of the same molecule?
A: markedly improved

Q: And the “renal injury and dysfunction” value (B6.SLE123 mice [2]; mouse model of SLE (FIG. 6 legend))?
A: attenuates

Q: And the “protection against H2O2-induced cytotoxicity” value (HepG2 cells)?
A: dramatically protected

Q: What about the renal inflammation (B6.SLE123 mice [3]) of the same molecule?
A: markedly reduced

Q: What about the “renal CD3+ T-cells” value (B6.SLE123 mice [3]; kidney, flow cytometry) of the same molecule?
A: reduction

Q: What about the “renal CD45+ cells” value (B6.SLE123 mice [3]; kidney, flow cytometry) of the same molecule?
A: reduction

Q: What about the “serious adverse effects or potential issues observed” value [4] of the same molecule?
A: no serious adverse effects or potential issues

Q: What about the “accumulation of 2-HOBA and its primary metabolite” value (healthy human volunteers [5]) of the same molecule?
A: low

Q: And the serious adverse events (healthy human volunteers [5])?
A: no serious adverse events

Q: What about the “tolerability of multiple doses” value (healthy human volunteers [5]) of the same molecule?
A: well tolerated

Q: And the isoLG scavenging [6]?
A: potent isoLG scavengers

Q: And the “rate of reaction with isoLGs, faster than the e-amine of lysine” value ([6]; relative to e-amine of lysine)?
A: more than 3 orders of magnitude

Q: And the “plasma anti-dsDNA antibody titers” value (B6.SLE123 mice [7]; B6.SLE123, ELISA)?
A: reduces; also recorded: markedly lower

Q: And the “total IgG antibody titers” value (B6.SLE123 mice [7]; B6.SLE123, plasma, ELISA)?
A: reduces; also recorded: markedly lower

Q: And the “accumulation of bone marrow plasma cells” value (B6.SLE123 mice [7]; [10])?
A: reduces; also recorded: attenuated

Q: And the “accumulation of spleen plasma cells” value (B6.SLE123 mice [7]; [10])?
A: attenuated

Q: And the “safety and tolerability of single doses” value (healthy human volunteers [8])?
A: safe and well-tolerated
